Our source for the IC50 values is patent US20130310344A1, “N-ACYLSULFONAMIDE APOPTOSIS PROMOTERS” (ASTRAZENECA AB, priority 2010, published 2013).

pIC50: −log10 of the molar value. Where a name gives a salt, the structure may show the parent alone.

Assay [1] addresses T1, Bcl-XL (Homo sapiens, UniProt Q07817).
T1 construct: a C-terminal 6×HIS tagged Bcl-XL (aa 1-209); 6xHis (C)
In words: Bcl-XL FP assay (competitive fluorescence polarization binding assay, FITC-Bim BH-3 peptide tracer). Conditions: C-terminal 6×HIS tagged Bcl-XL (aa 1-209), 0.8 nM; 2 nM FITC-Bim peptide tracer. An excerpt: (§1) Bcl-xL and Bcl-2 FP binding affinity of compound(s) of Formulae (I), (I-a), (I-b), (I-c), (I-d) and/or (I-e) may be determined using a variety of known methods. One such assay is a sensitive and quantitative in vitro binding assay using fluorescence polarization (“FP”) described by Wang, J.-L.; Zhang, Z-J.; Choksi, S.; Sjam. S.; Lu, Z.; Croce, C. M.; Alnemri, E. S.; Komgold, R.; Huang, Z. Cell permeable Bcl-2 binding peptides: a chemical approach to apoptosis induction in tumor cells. Cancer Res. 2000, 60, 1498-1502).
(§2) Additionally, the binding affinity of compound(s) of Formulae (I), (I-a), (I-b), (I-c), (I-d) and/or (I-e) to Bcl-2 protein in vitro was determined by a competitive binding assay based on fluorescence polarization. For example, fluorescence polarization (“FP”) assays may be developed using a c-terminal 6×HIS tagged Bcl-2 (aa 1-204) and a C-terminal 6×HIS tagged Bcl-XL (aa 1-209). […] Dilutions of either Bcl-2 (1.3 nM) or Bcl-XL (0.8 nM) may be added to serial dilutions of antagonist and incubated for one hour prior to the addition of 2 nM of fluorescent peptide tracer (Anaspec, Fremont, Calif.) in the assay buffer. Final assay buffer conditions may be 20 mM HEPES, pH 7.5, 1 mM DTT, 0.005% Tween-20 and 50 mM NaCl. Samples may be read after 20-minute incubation. Fluorescence polarization values may be plotted as a function of the antagonist concentration.

Assay [2] addresses T2, Bcl-2 (Homo sapiens, UniProt P10415).
T2 construct: a c-terminal 6×HIS tagged Bcl-2 (aa 1-204); 6xHis (C)
The experiment in a line: Bcl-2 FP assay (competitive fluorescence polarization binding assay, FITC-Bim BH-3 peptide tracer). Conditions: c-terminal 6×HIS tagged Bcl-2 (aa 1-204), 1.3 nM; 2 nM FITC-Bim peptide tracer.
Source text: as §1, §2
A general note: Polarisation of emitted light reports the rotation of a fluorescent probe.

T1 sequence (Q07817 1-209): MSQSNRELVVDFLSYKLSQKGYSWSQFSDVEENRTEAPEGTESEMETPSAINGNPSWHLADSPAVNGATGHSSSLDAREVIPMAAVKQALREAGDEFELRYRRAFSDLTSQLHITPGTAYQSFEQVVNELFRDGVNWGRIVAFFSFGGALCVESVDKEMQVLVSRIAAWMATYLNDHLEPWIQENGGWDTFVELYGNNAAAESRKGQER
T2 sequence (P10415 1-204): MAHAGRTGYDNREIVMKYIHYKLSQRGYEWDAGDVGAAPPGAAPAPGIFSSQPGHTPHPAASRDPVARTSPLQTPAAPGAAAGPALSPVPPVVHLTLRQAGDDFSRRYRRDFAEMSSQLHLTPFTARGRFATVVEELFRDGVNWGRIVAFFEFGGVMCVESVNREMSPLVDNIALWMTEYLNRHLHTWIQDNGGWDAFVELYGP

For “4-(4-((R)-(4′-chlorobiphenyl-2-yl)(cyano)methyl)piperidin-1-yl)-N-(4-((R)-4-morpholino-1-(phenylthio)butan-2-ylamino)-3-(trifluoromethylsulfonyl)phenylsulfonyl)benzamide and 4-(4-((S)-(4′-chlorobiphenyl-2-yl)(cyano)methyl)piperidin-1-yl)-N-(4-((R)-4-morpholino-1-(phenylthio)butan-2-ylamino)-3-(trifluoromethylsulfonyl)phenylsulfonyl)benzamide, mixture of diastereomers [Example 17]”, the pIC50 (commonly −log10 of the IC50, conventionally taken in molar units) in assay [1] is 9.00.
For `O=C(NS(=O)(=O)c1ccc(N[C@H](CCN2CCN(CCO)CC2)CSc2ccccc2)c(S(=O)(=O)C(F)(F)F)c1)c1ccc(N2CCC([C@@H](O)c3ccccc3-c3ccc(Cl)cc3)CC2)cc1` [Example 1, 4-(4-((R)-(4′-chlorobiphenyl-2-yl)(hydroxy)methyl)piperidin-1-yl)-N-(4-((R)-4-(4-(2-hydroxyethyl)piperazin-1-yl)-1-(phenylthio)butan-2-ylamino)-3-(trifluoromethylsulfonyl)phenylsulfonyl)benzamide, formic acid salt], the pIC50 in assay [1] was 9.00; in assay [2], more than 9.00.
As for `CN(C)CC[C@H](CSc1ccccc1)Nc1ccc(S(=O)(=O)NC(=O)c2ccc(N3CCC([C@@H](O)c4ccccc4-c4ccc(Cl)cc4)CC3)cc2)cc1[N+](=O)[O-]` [Example 2, 4-(4-((R)-(4′-chlorobiphenyl-2-yl)(hydroxy)methyl)piperidin-1-yl)-N-(4-((R)-4-(dimethylamino)-1-(phenylthio)butan-2-ylamino)-3-nitrophenylsulfonyl)benzamide], the pIC50 is 9.00 in assay [1] and 9.52 in assay [2].
On the same counts, the results for `CN(CCO)CC[C@H](CSc1ccccc1)Nc1ccc(S(=O)(=O)NC(=O)c2ccc(N3CCC([C@@H](O)c4ccccc4-c4ccc(Cl)cc4)CC3)cc2)cc1S(=O)(=O)C(F)(F)F` [Example 3, 4-(4-((R)-(4′-chlorobiphenyl-2-yl)(hydroxy)methyl)piperidin-1-yl)-N-(4-((R)-4-((2-hydroxyethyl)(methyl)amino)-1-(phenylthio)butan-2-ylamino)-3-(trifluoromethylsulfonyl)phenylsulfonyl)benzamide] are 9.00 and more than 9.52.
On the same counts, the results for `CCN(CCO)CC[C@H](CSc1ccccc1)Nc1ccc(S(=O)(=O)NC(=O)c2ccc(N3CCC([C@@H](O)c4ccccc4-c4ccc(Cl)cc4)CC3)cc2)cc1S(=O)(=O)C(F)(F)F` [Example 4, 4-(4-((R)-(4′-chlorobiphenyl-2-yl)(hydroxy)methyl)piperidin-1-yl)-N-(4-((R)-4-(ethyl(2-hydroxyethyl)amino)-1-(phenylthio)butan-2-ylamino)-3-(trifluoromethylsulfonyl)phenylsulfonyl)benzamide] are 9.10 and 9.30.
The like results for `O=C(NS(=O)(=O)c1ccc(N[C@H](CCN(CCO)CCO)CSc2ccccc2)c(S(=O)(=O)C(F)(F)F)c1)c1ccc(N2CCC([C@@H](O)c3ccccc3-c3ccc(Cl)cc3)CC2)cc1` [Example 5, N-(4-((R)-4-(bis(2-hydroxyethyl)amino)-1-(phenylthio)butan-2-ylamino)-3-(trifluoromethylsulfonyl)phenylsulfonyl)-4-(4-((R)-(4′-chlorobiphenyl-2-yl)(hydroxy)methyl)piperidin-1-yl)benzamide, formic acid salt] were, in that order, 9.00 and 9.10.
Turning to `O=C(NS(=O)(=O)c1ccc(N[C@H](CCN(CCOP(=O)(O)O)CCOP(=O)(O)O)CSc2ccccc2)c(S(=O)(=O)C(F)(F)F)c1)c1ccc(N2CCC([C@@H](O)c3ccccc3-c3ccc(Cl)cc3)CC2)cc1` [Example 7, 2,2′-((R)-3-(4-(N-(4-(4-((R)-(4′-chlorobiphenyl-2-yl)(hydroxy)methyl)piperidin-1-yl)benzoyl)sulfamoyl)-2-(trifluoromethylsulfonyl)phenylamino)-4-(phenylthio)butylazanediyl)bis(ethane-2,1-diyl)bis(dihydrogen phosphate), hydrochloride salt], the values for the pIC50 in assay [1] and in assay [2] were 9.00 and 8.70, respectively.
On the same counts, the results for `CCN(CCOP(=O)(O)O)CC[C@H](CSc1ccccc1)Nc1ccc(S(=O)(=O)NC(=O)c2ccc(N3CCC([C@@H](O)c4ccccc4-c4ccc(Cl)cc4)CC3)cc2)cc1S(=O)(=O)C(F)(F)F` [Example 8, 2-(((R)-3-(4-(N-(4-(4-((R)-(4′-chlorobiphenyl-2-yl)(hydroxy)methyl)piperidin-1-yl)benzoyl)sulfamoyl)-2-(trifluoromethylsulfonyl)phenylamino)-4-(phenylthio)butyl)(ethyl)amino)ethyl dihydrogen phosphate, hydrochloride salt] are 9.00 and 9.05.
The like results for `CN(CCOP(=O)(O)O)CC[C@H](CSc1ccccc1)Nc1ccc(S(=O)(=O)NC(=O)c2ccc(N3CCC([C@@H](O)c4ccccc4-c4ccc(Cl)cc4)CC3)cc2)cc1S(=O)(=O)C(F)(F)F` [Example 9, 2-(((R)-3-(4-(N-(4-(4-((R)-(4′-chlorobiphenyl-2-yl)(hydroxy)methyl)piperidin-1-yl)benzoyl)sulfamoyl)-2-(trifluoromethylsulfonyl)phenylamino)-4-(phenylthio)butyl)(methyl)amino)ethyl dihydrogen phosphate, hydrochloride salt] were, in that order, 9.00 and 9.05.
The like results for `O=C(NS(=O)(=O)c1ccc(N[C@H](CCN2CCN(CCOP(=O)(O)O)CC2)CSc2ccccc2)c(S(=O)(=O)C(F)(F)F)c1)c1ccc(N2CCC([C@@H](O)c3ccccc3-c3ccc(Cl)cc3)CC2)cc1` [Example 10, 2-(4-((R)-3-(4-(N-(4-(4-((R)-(4′-chlorobiphenyl-2-yl)(hydroxy)methyl)piperidin-1-yl)benzoyl)sulfamoyl)-2-(trifluoromethylsulfonyl)phenylamino)-4-(phenylthio)butyl)piperazin-1-yl)ethyl dihydrogen phosphate] were, in that order, 9.00 and 9.15.
For the molecule `CN(CCO)CC[C@H](CSc1ccccc1)Nc1ccc(S(=O)(=O)NC(=O)c2ccc(N3CCC([C@@H](N)c4ccccc4-c4ccc(Cl)cc4)CC3)cc2)cc1S(=O)(=O)C(F)(F)F` [Example 11, 4-(4-((R)-amino(4′-chlorobiphenyl-2-yl)methyl)piperidin-1-yl)-N-(4-((R)-4-((2-hydroxyethyl)(methyl)amino)-1-(phenylthio)butan-2-ylamino)-3-(trifluoromethylsulfonyl)phenylsulfonyl)benzamide, formic acid salt], the figures for the pIC50 in assay [1] and in assay [2] were 8.52 and 8.40, respectively.
Consider `CCN(CCO)CC[C@H](CSc1ccccc1)Nc1ccc(S(=O)(=O)NC(=O)c2ccc(N3CCC([C@@H](N)c4ccccc4-c4ccc(Cl)cc4)CC3)cc2)cc1S(=O)(=O)C(F)(F)F` [Example 12, 4-(4-((R)-amino(4′-chlorobiphenyl-2-yl)methyl)piperidin-1-yl)-N-(4-((R)-4-(ethyl(2-hydroxyethyl)amino)-1-(phenylthio)butan-2-ylamino)-3-(trifluoromethylsulfonyl)phenylsulfonyl)benzamide, formic acid salt], for which the pIC50 in assay [1] and in assay [2] was 8.52 each time.
`O=C(NS(=O)(=O)c1ccc(N[C@H](CCN2CCOC[C@H]2CO)CSc2ccccc2)c(S(=O)(=O)C(F)(F)F)c1)c1ccc(N2CCC([C@@H](O)c3ccccc3-c3ccc(Cl)cc3)CC2)cc1` [Example 24, 4-(4-((R)-(4′-chlorobiphenyl-2-yl)(hydroxy)methyl)piperidin-1-yl)-N-(4-((R)-4-((R)-3-(hydroxymethyl)morpholino)-1-(phenylthio)butan-2-ylamino)-3-(trifluoromethylsulfonyl)phenylsulfonyl)benzamide, formic acid salt]: the pIC50 in assay [2] is 9.40.
Still for that read-out and setting: the figure for `O=C(NS(=O)(=O)c1ccc(N[C@H](CCN2CCOC[C@@H]2CO)CSc2ccccc2)c(S(=O)(=O)C(F)(F)F)c1)c1ccc(N2CCC([C@@H](O)c3ccccc3-c3ccc(Cl)cc3)CC2)cc1` [Example 25, 4-(4-((R)-(4′-chlorobiphenyl-2-yl)(hydroxy)methyl)piperidin-1-yl)-N-(4-((R)-4-((S)-3-(hydroxymethyl)morpholino)-1-(phenylthio)butan-2-ylamino)-3-(trifluoromethylsulfonyl)phenylsulfonyl)benzamide, hydrochloride salt] is 9.40.
